Where two headings read alike, the source gives them in different places. Blank lines part the entries; values can stand above or below the compound they belong to. Non-standard residues stand in square brackets, D forms with d. Residues, ends and D or L forms follow the SMILES beside them. *: point of attachment. NMeW = CN[C@@H](Cc1c[nH]c2ccccc12)C(=O)O; Phe(4-NH2) = Nc1ccc(C[C@H](N)C(=O)O)cc1; NMeA = CN[C@@H](C)C(=O)O; Bn = c1ccc(C*)cc1
Biological target: Sushi domains (SD1/2) protein
Assay: Fluorescence polarization (FP) competition assay with AJAP-1probe, calculated Ki
Assay type: binding
Outline: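 Competition against 25 nM TAMRA-labelled peptide probe binding SD1/2, in PBS pH 7.4 with 1% BSA at rt, read at 530/580 nm. IC50 from sigmoidal dose-response fits, at least triplicate; Ki calculated from IC50 using probe Kd from saturation binding.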

[1] = Table 14, CPPs tagged peptides, read-out: Ki (nM) mean ± SEM
[2] = Table 7, Ala-, D-amino acids and N-methylation scans of APPWT, read-out: Ki (nM) mean ± SEM
[3] = Table 16, ncAAs incorporated peptides, read-out: Ki (nM) mean ± SEM
[4] = Table 4, truncation and elongation scans of APP epitope, read-out: Ki (nM) mean ± SEM
[5] = Table 6, elongation and truncation scan of PIANP binding epitope, read-out: Ki (nM) mean ± SEM
[6] = Table 11, deep mutational scanning validation variants of AJAP-1WT, read-out: Ki (nM) mean ± SEM
[7] = Table 1, affinity maturation, mean ± SEM, n ≥ 3, read-out: Ki

Compound: CC(=O)N[C@@H](CCC(=O)O)C(=O)N[C@@H](CC(=O)O)C(=O)N[C@@H](CC(=O)O)C(=O)N[C@@H](CO)C(=O)N[C@@H](CC(=O)O)C(=O)N[C@H](C(=O)N(C)[C@@H](Cc1c[nH]c2ccccc12)C(=O)N[C@@H](Cc1c[nH]c2ccccc12)C(=O)NCC(=O)NCC(=O)N[C@@H](C)C(=O)N[C@@H](CC(=O)O)C(=O)N[C@H](C(=O)N[C@@H](CC(=O)O)C(N)=O)[C@@H](C)O)C(C)C [EDDSDV(N-Me-W)WGGADTD] (Ac-EDDSDV[NMeW]WGGADTD-NH2)
- Ki [2]: 85600 ± 10100 nM

Compound: CC[C@H](C)[C@H](NC(=O)[C@H](Cc1ccc(O)cc1)NC(=O)[C@H](Cc1c[nH]c2ccccc12)NC(=O)[C@@H]1CCCN1C(C)=O)C(=O)N[C@H](C(=O)N[C@@H](Cc1c[nH]c2ccccc12)C(=O)NCC(=O)N1CCC[C@H]1C(=O)N[C@H](C(=O)N[C@H](C(=O)N[C@@H](CO)C(=O)N[C@@H](CCCNC(=N)N)C(=O)N[C@@H](CCC(=O)O)C(=O)N[C@@H](CC(=O)O)C(N)=O)C(C)C)[C@@H](C)O)C(C)C [PWYIVWGPTVSRED] (Ac-PWYIVWGPTVSRED-NH2)
- Ki (Table 12, deep mutational scanning validation variants of PIANPWT, read-out: Ki (nM) mean ± SEM): 336 ± 2 nM

Compound: EDDSDVWW(Aphe)GADTD (Ac-EDDSDVWW[Phe(4-NH2)]GADTD-NH2; SMILES CC(=O)N[C@@H](CCC(=O)O)C(=O)N[C@@H](CC(=O)O)C(=O)N[C@@H](CC(=O)O)C(=O)N[C@@H](CO)C(=O)N[C@@H](CC(=O)O)C(=O)N[C@H](C(=O)N[C@@H](Cc1c[nH]c2ccccc12)C(=O)N[C@@H](Cc1c[nH]c2ccccc12)C(=O)N[C@@H](Cc1ccc(N)cc1)C(=O)NCC(=O)N[C@@H](C)C(=O)N[C@@H](CC(=O)O)C(=O)N[C@H](C(=O)N[C@@H](CC(=O)O)C(N)=O)[C@@H](C)O)C(C)C)
- Ki [3]: 102 ± 1 nM

Compound: CC[C@H](C)[C@H](NC(=O)[C@H](C)NC(=O)[C@H](Cc1c[nH]c2ccccc12)NC(=O)[C@@H]1CCCN1C(=O)[C@H](Cc1ccc(O)cc1)NC(=O)[C@H](CCC(N)=O)NC(=O)[C@H](CO)NC(=O)[C@H](CO)NC(=O)[C@@H]1CCCN1C(C)=O)C(=O)N[C@H](C(=O)N[C@@H](Cc1c[nH]c2ccccc12)C(=O)NCC(=O)N1CCC[C@H]1C(=O)N[C@H](C(=O)N[C@H](C(=O)N[C@@H](CO)C(=O)N[C@@H](CCCNC(=N)N)C(=O)N[C@@H](CCC(=O)O)C(=O)N[C@@H](CC(=O)O)C(=O)NCC(N)=O)C(C)C)[C@@H](C)O)C(C)C (Ac-PSSQYPWAIVWGPTVSREDG-NH2)
- Ki [5]: > 62500 nM

Compound: CC[C@H](C)[C@H](NC(=O)[C@H](Cc1c[nH]c2ccccc12)NC(=O)[C@H](CC(=O)O)NC(=O)[C@H](CC(=O)O)NC(=O)[C@H](CC(=O)O)NC(=O)[C@H](CCC(=O)O)NC(C)=O)C(=O)N[C@@H](CC(=O)O)C(=O)N[C@@H](Cc1c[nH]c2ccccc12)C(=O)N[C@@H](Cc1ccc(O)cc1)C(=O)N[C@@H](CC(=O)O)C(=O)N[C@@H](CO)C(=O)N[C@@H](CC(=O)O)C(=O)N[C@@H](CC(=O)O)C(=O)N[C@@H](CC(=O)O)C(=O)N[C@@H](CCC(=O)O)C(=O)N[C@@H](C)C(=O)N[C@@H](C)C(=O)N[C@@H](C)C(=O)N[C@@H](CCCCN)C(=O)N[C@@H](CCCNC(=N)N)C(=O)N[C@@H](CCCNC(=N)N)C(=O)N[C@@H](CCCNC(=N)N)C(=O)N[C@@H](CCCNC(=N)N)C(=O)N[C@@H](CCCNC(=N)N)C(=O)N[C@@H](CCCNC(=N)N)C(=O)N[C@@H](CCCNC(=N)N)C(=O)N[C@@H](CCCNC(=N)N)C(N)=O [Peptide 16-RL-R8] (Ac-EDDDWIDWYDSDDDEAAAKRRRRRRRR-NH2)
- Ki (CPP tagged peptides overview, SD1/2 binding affinity, mean ± SEM, n ≥ 3, read-out: Ki): 100 ± 4 nM
- Ki [1]: 99.5 ± 4 nM

Compound: CC[C@H](C)[C@H](NC(=O)[C@H](C)N(C)C(=O)[C@H](Cc1c[nH]c2ccccc12)NC(=O)[C@@H]1CCCN1C(C)=O)C(=O)N[C@H](C(=O)N[C@@H](Cc1c[nH]c2ccccc12)C(=O)NCC(=O)N1CCC[C@H]1C(=O)N[C@H](C(=O)N[C@H](C(=O)N[C@@H](CO)C(=O)N[C@@H](CCCNC(=N)N)C(=O)N[C@@H](CCC(=O)O)C(=O)N[C@@H](CC(=O)O)C(N)=O)C(C)C)[C@@H](C)O)C(C)C [PW(N-Me-A)IVWGPTVSRED] (Ac-PW[NMeA]IVWGPTVSRED-NH2)
- Ki (Table 9, Ala-, D-amino acids and N-methylation scans of PIANPWT, read-out: Ki (nM) mean ± SEM): 7230 ± 130 nM

Compound: CC[C@H](C)[C@H](NC(=O)[C@H](Cc1ccccc1)NC(=O)[C@H](CCC(=O)O)NC(=O)[C@@H](NC(=O)[C@H](CCC(=O)O)NC(C)=O)[C@@H](C)O)C(=O)N[C@@H](C)C(=O)N[C@@H](Cc1c[nH]c2ccccc12)C(=O)NCC(=O)N1CCC[C@H]1C(=O)N[C@H](C(=O)N[C@@H](CCCNC(=N)N)C(=O)N[C@@H](CC(=O)O)C(=O)N[C@@H](CCC(=O)O)C(=O)N[C@@H](CC(=O)O)C(N)=O)[C@@H](C)O [ETEFIAWGPTRDED] (Ac-ETEFIAWGPTRDED-NH2)
- Ki [6]: 32 ± 1 nM

Compound: CCOc1ccc(C[C@H](NC(=O)[C@H](CC(=O)O)NC(=O)[C@H](CC(=O)O)NC(=O)[C@H](CC(=O)O)NC(=O)[C@H](CCC(=O)O)NC(C)=O)C(=O)N[C@H](C(=O)N[C@@H](CC(=O)O)C(=O)N[C@@H](Cc2c[nH]c3ccccc23)C(=O)N[C@@H](Cc2ccc(O)cc2)C(=O)N[C@@H](CC(=O)O)C(=O)N[C@@H](CO)C(=O)N[C@@H](CC(=O)O)C(=O)N[C@@H](CC(=O)O)C(=O)N[C@@H](CC(=O)O)C(N)=O)[C@@H](C)CC)cc1 [Peptide 32]
- Ki [7]: 5.3 ± 0.2 nM
- Ki [3]: 5.3 ± 0.2 nM

Compound: CC(=O)N[C@@H](Cc1c[nH]c2ccccc12)C(=O)N[C@@H](Cc1c[nH]c2ccccc12)C(=O)NCC(=O)NCC(=O)N[C@@H](C)C(=O)N[C@@H](CC(=O)O)C(=O)N[C@H](C(=O)N[C@@H](CC(=O)O)C(=O)N[C@@H](Cc1ccc(O)cc1)C(=O)N[C@@H](C)C(=O)N[C@@H](CC(=O)O)C(N)=O)[C@@H](C)O (Ac-WWGGADTDYAD-NH2)
- Ki [4]: > 62500 nM

Compound: CC[C@H](C)[C@H](NC(=O)[C@H](Cc1ccccc1)NC(=O)[C@H](CCC(=O)O)NC(=O)[C@@H](NC(=O)[C@H](CCC(=O)O)NC(C)=O)[C@@H](C)O)C(=O)N[C@@H](C)C(=O)N[C@@H](Cc1c[nH]c2ccccc12)C(=O)NCC(=O)N1CCC[C@H]1C(=O)N[C@H](C(=O)NCC(=O)N[C@@H](CC(=O)O)C(=O)N[C@@H](CCC(=O)O)C(=O)N1CCC[C@H]1C(N)=O)[C@@H](C)O (Ac-ETEFIAWGPTGDEP-NH2)
- Ki [6]: 41 ± 2 nM

Second part, the compound after the results:

- Ki [1]: 15 ± 1 nM
Compound: CC[C@H](C)[C@H](NC(=O)[C@H](Cc1c[nH]c2ccccc12)NC(=O)[C@H](CC(=O)O)NC(=O)[C@H](CC(=O)O)NC(=O)[C@H](CC(=O)O)NC(=O)[C@H](CCC(=O)O)NC(=O)[C@H](CCCNC(=N)N)NC(=O)[C@H](CCCNC(=N)N)NC(=O)[C@H](CCCNC(=N)N)NC(=O)[C@H](CCCNC(=N)N)NC(C)=O)C(=O)N[C@@H](CC(=O)O)C(=O)N[C@@H](Cc1c[nH]c2ccccc12)C(=O)NCC(=O)N1CCC[C@H]1C(=O)N[C@H](C(=O)N[C@@H](CO)C(=O)N[C@@H](CC(=O)O)C(=O)N[C@@H](CC(=O)O)C(=O)N[C@@H](CC(=O)O)C(N)=O)[C@@H](C)O [Peptide 4R-17] (Ac-RRRREDDDWIDWGPTSDDD-NH2)

- Ki [3]: 28 ± 1 nM
- Ki (purified peptides, read-out: Ki): 27.1 nM
- fold increased affinity compared to Asp207Trp (relative to Asp207Trp mutant of APPWT): 4 fold
Compound: CC(=O)N[C@@H](CCC(=O)O)C(=O)N[C@@H](CC(=O)O)C(=O)N[C@@H](CC(=O)O)C(=O)N[C@@H](CO)C(=O)N[C@@H](Cc1ccc(OCc2ccccc2)cc1)C(=O)N[C@H](C(=O)N[C@@H](Cc1c[nH]c2ccccc12)C(=O)N[C@@H](Cc1c[nH]c2ccccc12)C(=O)NCC(=O)NCC(=O)N[C@@H](C)C(=O)N[C@@H](CC(=O)O)C(=O)N[C@H](C(=O)N[C@@H](CC(=O)O)C(N)=O)[C@@H](C)O)C(C)C (Ac-EDDSY(Bn)VWWGGADTD-NH2)

- Ki [4]: 1500 ± 66 nM
Compound: CC(=O)N[C@@H](CC(=O)O)C(=O)N[C@@H](CO)C(=O)N[C@@H](CC(=O)O)C(=O)N[C@H](C(=O)N[C@@H](Cc1c[nH]c2ccccc12)C(=O)N[C@@H](Cc1c[nH]c2ccccc12)C(=O)NCC(=O)NCC(=O)N[C@@H](C)C(=O)N[C@@H](CC(=O)O)C(=O)N[C@H](C(=O)N[C@@H](CC(=O)O)C(=O)N[C@@H](Cc1ccc(O)cc1)C(=O)N[C@@H](C)C(=O)N[C@@H](CC(=O)O)C(N)=O)[C@@H](C)O)C(C)C (Ac-DSDVWWGGADTDYAD-NH2)

- Ki [2]: 8790 ± 92 nM
Compound: CC(=O)N[C@@H](CCC(=O)O)C(=O)N[C@@H](CC(=O)O)C(=O)N[C@@H](CC(=O)O)C(=O)N[C@@H](CO)C(=O)N[C@@H](CC(=O)O)C(=O)N[C@H](C(=O)N[C@@H](C)C(=O)N[C@@H](Cc1c[nH]c2ccccc12)C(=O)NCC(=O)NCC(=O)N[C@@H](C)C(=O)N[C@@H](CC(=O)O)C(=O)N[C@H](C(=O)N[C@@H](CC(=O)O)C(N)=O)[C@@H](C)O)C(C)C (Ac-EDDSDVAWGGADTD-NH2)

- Ki [7]: 62 ± 1 nM
- Ki (Table 13, peptides for affinity maturation, read-out: Ki (nM) mean ± SEM): 62 ± 1 nM
- fold improved affinity compared to APPWT (relative to APPWT): ~10 fold
Compound: CC(=O)N[C@@H](CCC(=O)O)C(=O)N[C@@H](CC(=O)O)C(=O)N[C@@H](CC(=O)O)C(=O)N[C@@H](CO)C(=O)N[C@@H](CC(=O)O)C(=O)N[C@H](C(=O)N[C@@H](Cc1c[nH]c2ccccc12)C(=O)N[C@@H](Cc1c[nH]c2ccccc12)C(=O)NCC(=O)N1CCC[C@H]1C(=O)N[C@H](C(=O)NCC(=O)N[C@@H](CC(=O)O)C(=O)N[C@@H](CCC(=O)O)C(=O)N[C@@H](CC(=O)O)C(N)=O)[C@@H](C)O)C(C)C [Peptide X, Ac-EDDSDVWWGPTGDED-NH2] (Ac-EDDSDVWWGPTGDED-NH2)

- Ki [5]: 706 ± 16 nM
Compound: CC[C@H](C)[C@H](NC(=O)[C@H](C)NC(=O)[C@H](Cc1c[nH]c2ccccc12)NC(=O)[C@@H]1CCCN1C(C)=O)C(=O)N[C@H](C(=O)N[C@@H](Cc1c[nH]c2ccccc12)C(=O)NCC(=O)N1CCC[C@H]1C(=O)N[C@H](C(=O)N[C@H](C(=O)N[C@@H](CO)C(=O)N[C@@H](CCCNC(=N)N)C(=O)N[C@@H](CCC(=O)O)C(=O)N[C@@H](CC(=O)O)C(=O)NCC(=O)NCC(=O)N[C@@H](CC(=O)O)C(=O)N1CCC[C@H]1C(=O)N[C@@H](CC(N)=O)C(=O)N[C@@H](CO)C(N)=O)C(C)C)[C@@H](C)O)C(C)C (Ac-PWAIVWGPTVSREDGGDPNS-NH2)
